{
  "source": "patent US20250123290A1",
  "about": "“BIOTIN-FREE PROXIMITY LABELING” (HOWARD HUGHES MEDICAL INSTITUTE, priority 2023, published 2025)",
  "key": {"[1]": {"system": "cultured primary neurons expressing LAMP1-APEX2-V5", "experiment": "CLA-tyramide proximity labeling of neuronal lysosomal proteins, imaging with HaloTag protein and antibody staining", "assay_type": "cell-based, rat", "conditions": "150 μM CLA-tyramide, FIG. 2C", "description": "The exemplary system studied in this Example makes use of a unique substrate for proximity labeling, which is a CLA-phenol compound, which in some cases is referred to herein as a CLA-tyramide compound. As will be appreciated, the chemical structure of tyramide includes a phenol moiety. To establish efficacy, the exemplary system was used to detect proteins that are enriched in neuronal lysosomes with lysosome-targeted APEX2 (Lamp1-APEX2).\nWith reference to FIG. 2A, cultured primary neurons expressing LAMP1-APEX2-V5 were incubated with 0 μM, 50 μM, 150 μM, or 500 μM CLA-tyramide, respectively. Neurons were fixed, permeabilized, and incubated with HaloTag protein. Cells were then stained with antibodies against HaloTag, V5, and MAP5 to label CLA-tagged proteins, LAMP1-APEX2-V5 (lysosome APEX2), and neurons, respectively.\nLine scans show the relative intensity of CLA-tagged proteins and LAMP1-APEX2-V5."}, "[2]": {"system": "APEX2 in the mouse brain", "experiment": "CLA-tyramide (CLA-phenol) mediated proximity labeling in mouse brain", "assay_type": "in vivo", "conditions": "mouse brain samples; FIGS. 4A-4B", "description": "CLA-tyramide (CLA-phenol) mediated proximity labeling was conducted in mouse brain. […] The mouse brain samples were fixed, permeabilized, and incubated with HaloTag protein. The samples were then stained with antibodies against HaloTag and V5 (on APEX2) to label CLA-tagged proteins and APEX2, respectively."}, "[3]": {"system": "cilia and mitochondria", "experiment": "CLA-tyramide labeling in cilia and mitochondria, detection with EGFP-HaloTag protein", "assay_type": "cell-based", "conditions": "250 μM CLA-tyramide; FIGS. 3B and 3D", "description": "CLA-tyramide labeling was conducted in cilia and mitochondria. FIGS. 3A and 3B show CLA-tyramide labeling in cilia. FIGS. 3C and 3D show CLA-tyramide labeling in mitochondria. FIGS. 3B and 3D are from experiments in which 250 μM CLA-tyramide was applied to cells. Cells were fixed, permeabilized, and incubated with EGFP-HaloTag protein."}},
  "data": [
    {"smiles": "O=C(NCCOCCOCCCCCCCl)NCCc1ccc(O)cc1", "note": "[CLA-tyramide]", "values": [
      {"measurement": "colocalization of CLA-tagged proteins and LAMP1-APEX2-V5 (line scans of relative intensity)", "setting": "[1]", "result": "Good colocalization"},
      {"measurement": "co-localization of CLA-tagged proteins and APEX2 (V5)", "setting": "[2]", "result": "good co-localization of most structures"},
      {"measurement": "labeling in different subcellular compartments (cilia, mitochondria)", "setting": "[3]", "result": "can be applied to different subcellular compartments"}
    ]}
  ]
}
